Active and inactive are the calls of the source. Unless noted, the calls are words filed in the database; no cut-off is given here.
What was measured:
Type in all cases: functional
[1] = Antioxidant activity assessed as metal chelating activity by measuring inhibition of ferrozine-Fe2+ complex formation at 25 to 100 ug/ml
[2] = Antioxidant activity assessed as metal chelating activity by measuring inhibition of ferrozine-Fe2+ complex formation at 100 ug/ml; parameters: scale not given: the % may be the effect or the level left
[3] = Antioxidant activity assessed as ferric ion reducing activity at 75 ug/ml by FRAP assay
Aspergillus flavus [4] = assay: Antimicrobial activity against Aspergillus flavus MTCC 1973 at 500 ug/ml after 72 hrs by cup plate method; details: MTCC 1973, 72 h, read-out: IZ
Aspergillus flavus [5] = assay: Antimicrobial activity against Aspergillus flavus MTCC 1973 at 750 ug/ml after 72 hrs by cup plate method; details: MTCC 1973, 72 h, read-out: IZ
Aspergillus flavus [6] = assay: Antimicrobial activity against Aspergillus flavus MTCC 1973 at 1000 ug/ml after 72 hrs by cup plate method; details: MTCC 1973, 72 h, read-out: IZ
Aspergillus terreus [7] = assay: Antimicrobial activity against Aspergillus terreus MTCC 1782 at 500 ug/ml after 72 hrs by cup plate method; details: MTCC 1782, 72 h, read-out: IZ
Aspergillus terreus [8] = assay: Antimicrobial activity against Aspergillus terreus MTCC 1782 at 750 ug/ml after 72 hrs by cup plate method; details: MTCC 1782, 72 h, read-out: IZ
Aspergillus terreus [9] = assay: Antimicrobial activity against Aspergillus terreus MTCC 1782 at 1000 ug/ml after 72 hrs by cup plate method; details: MTCC 1782, 72 h, read-out: IZ
Aspergillus oryzae [10] = assay: Antimicrobial activity against Aspergillus oryzae MTCC 3567 at 500 ug/ml after 72 hrs by cup plate method; details: MTCC 3567, 72 h, read-out: IZ
Aspergillus oryzae [11] = assay: Antimicrobial activity against Aspergillus oryzae MTCC 3567 at 750 ug/ml after 72 hrs by cup plate method; details: MTCC 3567, 72 h, read-out: IZ
Aspergillus oryzae [12] = assay: Antimicrobial activity against Aspergillus oryzae MTCC 3567 at 1000 ug/ml after 72 hrs by cup plate method; details: MTCC 3567, 72 h, read-out: IZ
Aspergillus niger [13] = assay: Antimicrobial activity against Aspergillus niger MTCC 281 at 500 ug/ml after 72 hrs by cup plate method; details: MTCC 281, 72 h, read-out: IZ
Aspergillus niger [14] = assay: Antimicrobial activity against Aspergillus niger MTCC 281 at 750 ug/ml after 72 hrs by cup plate method; details: MTCC 281, 72 h, read-out: IZ
Aspergillus niger [15] = assay: Antimicrobial activity against Aspergillus niger MTCC 281 at 1000 ug/ml after 72 hrs by cup plate method; details: MTCC 281, 72 h, read-out: IZ
Pseudomonas aeruginosa [16] = assay: Antimicrobial activity against Pseudomonas aeruginosa MTCC 1688 at 500 ug/ml after 24 hrs by cup plate method; details: MTCC 1688, 24 h, read-out: IZ
Pseudomonas aeruginosa [17] = assay: Antimicrobial activity against Pseudomonas aeruginosa MTCC 1688 at 750 ug/ml after 24 hrs by cup plate method; details: MTCC 1688, 24 h, read-out: IZ
Pseudomonas aeruginosa [18] = assay: Antimicrobial activity against Pseudomonas aeruginosa MTCC 1688 at 1000 ug/ml after 24 hrs by cup plate method; details: MTCC 1688, 24 h, read-out: IZ
Klebsiella pneumoniae [19] = assay: Antimicrobial activity against Klebsiella pneumoniae NCTC 13368 at 500 ug/ml after 24 hrs by cup plate method; details: NCTC 13368, 24 h, read-out: IZ
Klebsiella pneumoniae [20] = assay: Antimicrobial activity against Klebsiella pneumoniae NCTC 13368 at 750 ug/ml after 24 hrs by cup plate method; details: NCTC 13368, 24 h, read-out: IZ
Klebsiella pneumoniae [21] = assay: Antimicrobial activity against Klebsiella pneumoniae NCTC 13368 at 1000 ug/ml after 24 hrs by cup plate method; details: NCTC 13368, 24 h, read-out: IZ
Staphylococcus aureus [22] = assay: Antimicrobial activity against Staphylococcus aureus ATCC 29513 at 500 ug/ml after 24 hrs by cup plate method; details: ATCC 29513, 24 h, read-out: IZ
Staphylococcus aureus [23] = assay: Antimicrobial activity against Staphylococcus aureus ATCC 29513 at 750 ug/ml after 24 hrs by cup plate method; details: ATCC 29513, 24 h, read-out: IZ
Staphylococcus aureus [24] = assay: Antimicrobial activity against Staphylococcus aureus ATCC 29513 at 1000 ug/ml after 24 hrs by cup plate method; details: ATCC 29513, 24 h, read-out: IZ
Escherichia coli [25] = assay: Antimicrobial activity against Escherichia coli MTCC 723 at 500 ug/ml after 24 hrs by cup plate method; details: MTCC 723, 24 h, read-out: IZ
Escherichia coli [26] = assay: Antimicrobial activity against Escherichia coli MTCC 723 at 750 ug/ml after 24 hrs by cup plate method; details: MTCC 723, 24 h, read-out: IZ
Escherichia coli [27] = assay: Antimicrobial activity against Escherichia coli MTCC 723 at 1000 ug/ml after 24 hrs by cup plate method; details: MTCC 723, 24 h, read-out: IZ
[28] = Antioxidant activity assessed as ferric ion reducing activity at 25 to 100 ug/ml by FRAP assay
[29] = Antioxidant activity assessed as ferric ion reducing activity at 25 to 75 ug/ml by FRAP assay
[30] = tested on: Radical scavenging activity; assay: Antioxidant activity assessed as DPPH radical scavenging activity at 75 ug/ml
[31] = tested on: Radical scavenging activity; assay: Antioxidant activity assessed as DPPH radical scavenging activity at 50 ug/ml

Structure (SMILES)	Activity [1]	zone of inhibition at 500 µg/mL (Aspergillus flavus [4])	zone of inhibition at 750 µg/mL (Aspergillus flavus [5])	zone of inhibition at 1000 µg/mL (Aspergillus flavus [6])	zone of inhibition at 500 µg/mL (Aspergillus terreus [7])	zone of inhibition at 750 µg/mL (Aspergillus terreus [8])	zone of inhibition at 1000 µg/mL (Aspergillus terreus [9])	zone of inhibition at 500 µg/mL (Aspergillus oryzae [10])	zone of inhibition at 750 µg/mL (Aspergillus oryzae [11])	zone of inhibition at 1000 µg/mL (Aspergillus oryzae [12])	zone of inhibition at 500 µg/mL (Aspergillus niger [13])	zone of inhibition at 750 µg/mL (Aspergillus niger [14])	zone of inhibition at 1000 µg/mL (Aspergillus niger [15])	zone of inhibition at 500 µg/mL (Pseudomonas aeruginosa [16])	zone of inhibition at 750 µg/mL (Pseudomonas aeruginosa [17])	zone of inhibition at 1000 µg/mL (Pseudomonas aeruginosa [18])	zone of inhibition at 500 µg/mL (Klebsiella pneumoniae [19])	zone of inhibition at 750 µg/mL (Klebsiella pneumoniae [20])	zone of inhibition at 1000 µg/mL (Klebsiella pneumoniae [21])	zone of inhibition at 500 µg/mL (Staphylococcus aureus [22])	other results
N#Cc1c(N)c2c(N)c3c(nc2oc1=O)OC(c1ccc(Cl)cc1)=CC3c1c(-c2ccccc2)[nH]c2ccc(Cl)cc12 (stereo unspecified)	Active	10 mm	9 mm	8 mm	12 mm	13 mm	13 mm	9 mm	3 mm	3 mm	8 mm	8 mm	10 mm	9 mm	8 mm	3 mm	13 mm	13 mm	13 mm	12 mm	Activity [2]: 79.7%; Activity [3]: Active; zone of inhibition at 750 µg/mL (Staphylococcus aureus [23]): 12 mm; zone of inhibition at 1000 µg/mL (Staphylococcus aureus [24]): 10 mm; zone of inhibition at 500 µg/mL (Escherichia coli [25]): 11 mm; zone of inhibition at 750 µg/mL (Escherichia coli [26]): 12 mm; zone of inhibition at 1000 µg/mL (Escherichia coli [27]): 14 mm
Cc1ccc(C2=CC(c3c(-c4ccccc4)[nH]c4ccc(Cl)cc34)c3c(nc[nH]c3=O)O2)cc1 (stereo unspecified)	Active	6 mm	6 mm	6 mm	8 mm	8 mm	8 mm	12 mm	13 mm	13 mm	8 mm	8 mm	8 mm	8 mm	8 mm	8 mm	9 mm	9 mm	9 mm	5 mm	Activity [28]: Active; Activity [29]: Active; zone of inhibition at 750 µg/mL (Staphylococcus aureus [23]): 3 mm; zone of inhibition at 1000 µg/mL (Staphylococcus aureus [24]): 3 mm; zone of inhibition at 500 µg/mL (Escherichia coli [25]): 3 mm; zone of inhibition at 750 µg/mL (Escherichia coli [26]): 3 mm; zone of inhibition at 1000 µg/mL (Escherichia coli [27]): 3 mm
O=c1[nH]cnc2c1C(c1c(-c3ccccc3)[nH]c3ccc(Cl)cc13)C=C(c1ccc(Cl)cc1)O2 (stereo unspecified)	Active	4 mm	4 mm	4 mm	5 mm	5 mm	5 mm	3 mm	3 mm	3 mm	6 mm	5 mm	5 mm	8 mm	8 mm	8 mm	12 mm	12 mm	12 mm	9 mm	Activity [30]: Active; Activity [31]: Active; zone of inhibition at 750 µg/mL (Staphylococcus aureus [23]): 9 mm; zone of inhibition at 1000 µg/mL (Staphylococcus aureus [24]): 12 mm; zone of inhibition at 500 µg/mL (Escherichia coli [25]): 9 mm; zone of inhibition at 750 µg/mL (Escherichia coli [26]): 9 mm; zone of inhibition at 1000 µg/mL (Escherichia coli [27]): 8 mm

— ChEMBL document CHEMBL2346657, “Synthesis of novel 2-amino-4-(5'-substituted 2'-phenyl-1H-indol-3'-yl)-6-aryl-4H-pyran-3-carbonitrile derivatives as antimicrobial and antioxidant agents” (2013)
